Assays:
[1] = tested on: ALOMY; assay: Pre-emergence herbicidal action against ALOMY; format: in vivo, Alopecurus myosuroides; conditions: application rate 80 g/ha, scored visually after about 3 weeks vs untreated controls (100% = plants have died, 0% = like control plants)
How it was run: (§1)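 Seeds of weeds and crops sown in pots and covered with soil; WP or EC formulations sprayed onto the soil surface as aqueous suspension/emulsion with 0.5% additive at 600 l/ha water. Greenhouse growth; visual % activity versus untreated controls scored after about 3 weeks (100% = plants dead, 0% = like control).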

[2] = tested on: AVEFA; assay: Pre-emergence herbicidal action against AVEFA; format: in vivo, Avena fatua; conditions: application rate 80 g/ha, scored visually after about 3 weeks vs untreated controls (100% = plants have died, 0% = like control plants)
How it was run: as §1

[3] = tested on: LOLRI; assay: Pre-emergence herbicidal action against LOLRI; format: in vivo, Lolium rigidum; conditions: application rate 80 g/ha, scored visually after about 3 weeks vs untreated controls (100% = plants have died, 0% = like control plants)
How it was run: as §1

[4] = tested on: SETVI; assay: Pre-emergence herbicidal action against SETVI; format: in vivo, Setaria viridis; conditions: application rate 80 g/ha, scored visually after about 3 weeks vs untreated controls (100% = plants have died, 0% = like control plants)
How it was run: as §1

[5] = tested on: ABUTH; assay: Pre-emergence herbicidal action against ABUTH; format: in vivo, Abutilon theophrasti; conditions: application rate 80 g/ha, scored visually after about 3 weeks vs untreated controls (100% = plants have died, 0% = like control plants)
Text: (§2) 1. Pre-emergence herbicidal action against harmful plants and crop plant compatibility Seeds of monocotyledonous and dicotyledonous weed plants and crop plants are placed in plastic or wood-fibre pots and covered with soil. The compounds of the invention, formulated in the form of wettable powders (WP) or as emulsion concentrates (EC), are then applied onto the surface of the covering soil as aqueous suspension or emulsion with addition of 0.5% additive at a water application rate of 600 l/ha (converted). After the treatment, the pots are placed in a greenhouse and kept under good growth conditions for the trial plants. After about 3 weeks, the effect of the preparations is scored visually in comparison with untreated controls as percentages. For example, 100% activity=the plants have died, 0% activity=like control plants. [table]

[6] = tested on: AMARE; assay: Pre-emergence herbicidal action against AMARE; format: in vivo, Amaranthus retroflexus; conditions: application rate 80 g/ha
How it was run: as §1

[7] = tested on: POLCO; assay: Pre-emergence herbicidal action against POLCO; format: in vivo, Polygonum convolvulus; conditions: application rate 80 g/ha
How it was run: as §1

[8] = tested on: STEME; assay: Pre-emergence herbicidal action against STEME; format: in vivo, Stellaria media; conditions: application rate 80 g/ha
How it was run: as §1

[9] = tested on: VIOTR; assay: Pre-emergence herbicidal action against VIOTR; format: in vivo, Viola tricolor; conditions: application rate 80 g/ha
How it was run: as §1

[10] = tested on: ALOMY; assay: Post-emergence herbicidal action against ALOMY; format: in vivo, Alopecurus myosuroides; conditions: application rate 80 g/ha, rated visually after about 3 weeks
How it was run: (§3)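 Test plants grown from seed in greenhouse pots of sandy loam were treated post-emergence at the one-leaf stage. Damage, from 0% (like controls) to 100% (plants died), was assessed visually about 3 weeks later.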

[11] = tested on: AVEFA; assay: Post-emergence herbicidal action against AVEFA; format: in vivo, Avena fatua; conditions: application rate 80 g/ha, rated visually after about 3 weeks
How it was run: as §3

[12] = tested on: LOLRI; assay: Post-emergence herbicidal action against LOLRI; format: in vivo, Lolium rigidum; conditions: application rate 80 g/ha, rated visually after about 3 weeks
How it was run: as §3

[13] = tested on: SETVI; assay: Post-emergence herbicidal action against SETVI; format: in vivo, Setaria viridis; conditions: application rate 80 g/ha, rated visually after about 3 weeks
How it was run: as §3

[14] = tested on: ABUTH; assay: Post-emergence herbicidal action against ABUTH; format: in vivo, Abutilon theophrasti; conditions: application rate 80 g/ha, rated visually about 3 weeks after treatment
How it was run: as §3

[15] = tested on: AMARE; assay: Post-emergence herbicidal action against AMARE; format: in vivo, Amaranthus retroflexus; conditions: application rate 80 g/ha, rated visually about 3 weeks after treatment
How it was run: as §3

[16] = tested on: PHBPU; assay: Post-emergence herbicidal action against PHBPU; format: in vivo, Pharbitis purpurea; conditions: application rate 80 g/ha, rated visually about 3 weeks after treatment
How it was run: as §3

[17] = tested on: POLCO; assay: Post-emergence herbicidal action against POLCO; format: in vivo, Polygonum convolvulus; conditions: application rate 80 g/ha, rated visually about 3 weeks after treatment
How it was run: as §3

[18] = tested on: STEME; assay: Post-emergence herbicidal action against STEME; format: in vivo, Stellaria media; conditions: application rate 80 g/ha, rated visually about 3 weeks after treatment
How it was run: as §3

[19] = tested on: VERPE; assay: Post-emergence herbicidal action against VERPE; format: in vivo, Veronica persica; conditions: application rate 80 g/ha
How it was run: as §3

[20] = tested on: ECHCG; assay: Pre-emergence herbicidal action against ECHCG; format: in vivo, Echinochloa crus-galli; conditions: application rate 80 g/ha, scored visually after about 3 weeks vs untreated controls (100% = plants have died, 0% = like control plants)
Text: as §2

[21] = tested on: MATIN; assay: Pre-emergence herbicidal action against MATIN; format: in vivo, Matricaria inodora; conditions: application rate 80 g/ha, scored visually after about 3 weeks vs untreated controls (100% = plants have died, 0% = like control plants)
Text: as §2

[22] = tested on: PHBPU; assay: Pre-emergence herbicidal action against PHBPU; format: in vivo, Pharbitis purpurea; conditions: application rate 80 g/ha
Text: as §2

[23] = tested on: ECHCG; assay: Post-emergence herbicidal action against ECHCG; format: in vivo, Echinochloa crus-galli; conditions: application rate 80 g/ha, rated visually after about 3 weeks
How it was run: as §3

[24] = tested on: HORMU; assay: Pre-emergence herbicidal action against HORMU; format: in vivo, Hordeum murinum; conditions: application rate 80 g/ha
How it was run: as §1

[25] = tested on: VIOTR; assay: Post-emergence herbicidal action against VIOTR; format: in vivo, Viola tricolor; conditions: application rate 80 g/ha, rated visually about 3 weeks after treatment
How it was run: as §3

[26] = tested on: HORMU; assay: Post-emergence herbicidal action against HORMU; format: in vivo, Hordeum murinum; conditions: application rate 80 g/ha
How it was run: as §3

SMILES | Herbicidal action against [%] ALOMY [1] [%] | Herbicidal action against [%] AVEFA [2] [%] | Herbicidal action against [%] LOLRI [3] [%] | Herbicidal action against [%] SETVI [4] [%] | Herbicidal action against [%] AMARE [6] [%] | Herbicidal action against [%] POLCO [7] [%] | Herbicidal action against [%] STEME [8] [%] | Herbicidal action against [%] VIOTR [9] [%] | Herbicidal action against [%] ALOMY [10] [%] | Herbicidal action against [%] AVEFA [11] [%] | Herbicidal action against [%] LOLRI [12] [%] | Herbicidal action against [%] SETVI [13] [%] | Herbicidal action against [%] AMARE [15] [%] | Herbicidal action against [%] PHBPU [16] [%] | Herbicidal action against [%] POLCO [17] [%] | Herbicidal action against [%] STEME [18] [%] | Herbicidal action against [%] VERPE [19] [%] | Herbicidal action against [%] MATIN [21] [%] | Herbicidal action against [%] PHBPU [22] [%] | Herbicidal action against [%] ECHCG [23] [%] | other results
CC(C)C(C#N)NC(=O)C1C=CC(NC(=O)C2(C)CC(c3cc(F)cc(F)c3)=NO2)C1 (mixture of isomers) [II-12] | 90 | 80 | 90 | 90 | 90 | 100 | 90 | 80 | 90 | 80 | 80 | 80 | 80 | 80 | 80 | 90 | 80 |  |  |  | Herbicidal action against [%] ABUTH [5]: 80%; Herbicidal action against [%] ABUTH [14]: 80%
CONC(=O)[C@@H]1C=C[C@H](NC(=O)C2(C)CC(c3cc(F)cc(F)c3)=NO2)C1 (stereo partly drawn) [II-02] | 90 | 90 | 90 | 100 | 100 | 100 | 100 | 90 | 80 | 80 | 80 | 80 | 80 |  |  | 90 |  | 90 | 90 | 80 | Herbicidal action against [%] ECHCG [20]: 80%
CC1(C(=O)NC2CC=C(C(=O)NS(C)(=O)=O)C2)CC(c2cccc(F)c2)=NO1 (mixture of isomers) [IV-07] | 100 | 80 | 90 | 100 | 80 | 80 | 100 | 90 | 90 | 80 | 90 | 80 | 80 | 80 | 80 | 90 | 80 | 80 | 90 | 80 | Herbicidal action against [%] HORMU [24]: 90%; Herbicidal action against [%] VIOTR [25]: 80%; Herbicidal action against [%] HORMU [26]: 90%

— US12319664B2, “Herbicidally active 3-phenylisoxazoline-5-carboxamides of cyclopentenylcarboxylic acid derivatives” (Bayer Aktiengesellschaft, priority 2018, dated 2025)
